{"source": "patent US12023335B2", "about": "“Method for treating pancreatic cancer” (PTC THERAPEUTICS, INC., priority 2018, dated 2024)", "key": {"P-glycoprotein": {"target": "T1, P-glycoprotein (Homo sapiens, UniProt P08183)", "T1 construct": "host or cells: MDCKII-mdr1 (canine kidney MDCKII cells; MDCKII-wt as control)", "T1 sequence (P08183 whole entry)": "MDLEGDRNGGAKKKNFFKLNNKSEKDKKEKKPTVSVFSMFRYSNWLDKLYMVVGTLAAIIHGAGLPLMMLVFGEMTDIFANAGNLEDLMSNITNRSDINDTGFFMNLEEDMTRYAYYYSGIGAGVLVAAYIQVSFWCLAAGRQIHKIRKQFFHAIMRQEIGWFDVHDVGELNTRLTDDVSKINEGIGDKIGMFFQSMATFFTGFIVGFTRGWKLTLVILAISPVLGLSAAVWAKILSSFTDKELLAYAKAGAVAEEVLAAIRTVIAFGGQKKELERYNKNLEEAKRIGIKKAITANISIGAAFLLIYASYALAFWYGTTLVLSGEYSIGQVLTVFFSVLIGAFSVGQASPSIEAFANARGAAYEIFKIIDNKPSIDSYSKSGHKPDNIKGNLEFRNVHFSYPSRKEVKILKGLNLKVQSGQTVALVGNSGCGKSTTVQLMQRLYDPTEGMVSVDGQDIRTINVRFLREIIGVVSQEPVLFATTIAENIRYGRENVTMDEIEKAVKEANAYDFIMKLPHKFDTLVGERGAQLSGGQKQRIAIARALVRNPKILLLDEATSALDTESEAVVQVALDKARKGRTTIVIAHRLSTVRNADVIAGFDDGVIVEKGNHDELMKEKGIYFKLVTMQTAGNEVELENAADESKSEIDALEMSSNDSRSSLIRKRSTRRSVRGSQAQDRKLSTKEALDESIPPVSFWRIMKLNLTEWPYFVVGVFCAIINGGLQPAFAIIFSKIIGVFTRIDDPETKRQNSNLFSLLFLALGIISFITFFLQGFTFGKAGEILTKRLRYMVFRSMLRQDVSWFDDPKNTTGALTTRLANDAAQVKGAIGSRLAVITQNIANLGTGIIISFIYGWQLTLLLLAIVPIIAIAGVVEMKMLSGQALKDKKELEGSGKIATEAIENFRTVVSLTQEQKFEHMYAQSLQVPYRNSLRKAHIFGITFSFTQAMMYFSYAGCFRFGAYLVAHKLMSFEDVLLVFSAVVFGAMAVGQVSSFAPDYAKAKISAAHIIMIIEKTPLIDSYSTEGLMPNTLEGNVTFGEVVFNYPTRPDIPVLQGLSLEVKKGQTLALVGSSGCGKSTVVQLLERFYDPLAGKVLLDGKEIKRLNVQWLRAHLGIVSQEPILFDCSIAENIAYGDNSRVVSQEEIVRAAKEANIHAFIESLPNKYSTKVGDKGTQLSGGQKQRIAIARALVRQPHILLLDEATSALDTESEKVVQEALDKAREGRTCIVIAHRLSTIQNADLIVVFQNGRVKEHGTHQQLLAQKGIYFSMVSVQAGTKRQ", "test": "P-glycoprotein substrate activity experiment (CC50 ratio MDCK-P-gp vs MDCK-WT)", "assay_type": "in vitro ADME", "details": "72 hours, CellTiter-Glo (FIG. 4b)", "method": "MDCKII-mdr1 and MDCKII-wt cells were purchased from the Netherlands Cancer Institute, NKI-AVL. The cells were cultivated in Dulbecco's modified essential medium (DMEM), supplemented with 10% FBS and 1% Penn-Strep, and used between passage 3-9. Cells were seeded at a density of 3×10^3 cells/well in 96-well tissue culture treated plates. After 4 hours to allow cells to attach, cells were treated with test compound in the presence or absence of the P-glycoprotein inhibitor Valspodar. The plates were incubated at 37° C., 5% CO2 for 72 hours and ATP was measured vialuminescence using CellTiter-Glo® reagent (Promega). (FIG. 4b)"}, "advanced PDA": {"test_system": "advanced PDA", "details": "cited from earlier work"}, "PDA tumors in KPC mice": {"test_system": "PDA tumors in KPC mice", "test": "KPC intervention/survival study", "assay_type": "in vivo", "details": "KPC mice (FIGS. 9a, 9b)", "method": "Tumor formation in KPC mice was monitored by weekly palpation until the detection of a mass. Upon positive palpation, the mass was monitored by twice weekly ultrasound until the tumor reached an enrollable size of 4-7 mm average diameter. Once enrollable, KPC mice were randomly enrolled into a treatment arm of the intervention study. Mice were treated with vehicle, Compound 1 (17 mg/kg, PO, b.i.w.), gemcitabine alone (100 mg/kg, IP, b.i.w.), or Compound 1+gemcitabine. Mice receiving Compound 1 also received gemcitabine vehicle (saline, IP, b.i.w.) at a volume (μL) of 50× body weight (g). Mice receiving gemcitabine also received Compound 1 vehicle (0.5% hydroxypropylmethylcellulose with 0.1% Tween80 (w/v), PO, b.i.w.) at a volume (μL) of 5.7× body weight (g). All drug and vehicle combinations were administered simultaneously.\nTumor ultrasonography and volume quantification were carried out as described in Sastra S A, Olive K P, Quantification of murine pancreatic tumors by high-resolution ultrasound, Methods Mol Biol 2013; 980:249-66. […]\nTo prepare samples for immunohistochemistry, tissues were first fixed overnight in 10% phosphate-buffered formalin and then stored in 70% ethanol for long-term storage. […] Next, antigen retrieval was carried out in an experimentally determined, antibody-specific antigen retrieval buffer (usually 10 mM citrate, pH 6.0 or 10 mM Tris, pH 10.0). […]"}}}
{"smiles": "Cc1nc2cc(F)c(F)cc2n1-c1cncc(Nc2ccc(C(F)(F)F)cc2)n1", "note": "[Compound 2, 6-(5,6-difluoro-2-methyl-1H-benzo[d]imidazol-1-yl)-N-(4-(trifluoromethyl)phenyl)pyrazin-2-amine, reference compound]", "values": [{"measurement": "PGP substrate activity (ratio of CC50 values MDCK-P-gp vs MDCK-WT)", "setting": "P-glycoprotein", "value": "do not function as a PGP substrate"}]}
{"smiles": "C#Cc1cccc(Nc2ncnc3cc(OCCOC)c(OCCOC)cc23)c1", "note": "[Tarceva, erlotinib]", "values": [{"measurement": "additional survival benefit, average", "setting": "advanced PDA; when combined with gemcitabine", "value": 10, "unit": "days"}]}
{"smiles": "CN(C)CCCN1c2ccccc2Sc2ccc(Cl)cc21", "note": "[chlorpromazine, reference compound]", "values": [{"measurement": "PGP substrate activity (ratio of CC50 values MDCK-P-gp vs MDCK-WT)", "setting": "P-glycoprotein", "value": "do not function as a PGP substrate"}]}
{"smiles": "Nc1ccn([C@@H]2O[C@H](CO)[C@@H](O)C2(F)F)c(=O)n1", "note": "[gemcitabine, reference compound]", "values": [{"measurement": "apoptotic cell population in stained tumor sections", "setting": "PDA tumors in KPC mice", "value": "induced apoptotic cell population"}, {"measurement": "extension of survival", "setting": "advanced PDA; national standard-of-care therapy", "value": "modestly extends survival by a few weeks"}]}
